Consider 3 compounds from patent US4875925A, “Herbicidal method using diflufenican” (May & Baker Limited, priority 1986, dated 1989).

Format in all cases: in vivo
Data set [1] deals with Winter barley (variety Igri). The experiment in a line: Field crop phytotoxicity, winter barley (Experiment 3). To be noted: diflufenican 80 g/ha, trifluralin 800 g/ha, or both. From the text:
(§1) Diflufenican formulated as a 50% w/v aqueous suspension concentrate (Example 2), trifluralin as a 48% w/v emulsifiable concentrate (commercial product and a mixed formulation of diflufenican and trifluralin containing 44% w/v total active ingredient (Example 6) were applied at 0.16 l, 1.67 l and 2 l/ha respectively pre-emergence and just at emergence to winter barley and winter wheat to control Lamium purpureum pre-emergence under field conditions. The treatments were applied to three replicate 30 m^2 plots in a spray volume of 220 l/ha (winter barley) and 206 l/ha (winter wheat) using a motorised small plot sprayer. Visual % phytotoxicity was recorded and the results are given below.

Data set [2] deals with Winter wheat (variety Galahad). The experiment in a line: Field crop phytotoxicity, winter wheat (Experiment 3). The conditions noted are these: diflufenican 80 g/ha, trifluralin 800 g/ha, or both.
Description: as §1

In data set [3] the test system is Lamium purpureum. The experiment in a line: Field control of Lamium purpureum in winter barley and winter wheat (Experiment 3). To be noted: diflufenican 80 g/ha, trifluralin 800 g/ha, or both; for % weed phytotoxicity 72 days after spraying: in winter barley (variety Igri); for % weed phytotoxicity 98 days after spraying: in winter wheat (variety Galahad).
Description: as §1

In data set [4] the test system is Galium aparine. Kind of data set: Greenhouse post-emergence weed control, Galium aparine (Experiment 2). The conditions noted are these: 2 whorl stage, 14 days after treatment. As for the experimental part:
(§2) Greenhouse experiment showing the nature of biological synergism between pendimethalin and diflufenican applied post-emergence
(§3) A similar experiment to that hereinbefore described in Experiment 1 was carried out with pendimethalin and diflufenican applied to either 4 plants of Stellaria media at the 2 leaf stage or 4 plants of Galium aparine at the 2 whorl (branching initiated) stage. The following 90% herbicidally effective doses (ED90) in grams of diflufenican per hectare were calculated from the mean percentage weed control 14 days after treatment.

Data set [5] deals with Alopecurus myosuroides. Kind of data set: Greenhouse pre-emergence weed control, pendimethalin and diflufenican (Experiment 1). The conditions noted are these: 22 days after treatment. As for the experimental part: Greenhouse experiment showing the nature of biological synergism between pendimethalin and diflufenican applied pre-emergence
A factorial experiment with 30 treatments was carried out to investigate the interaction of pendimethalin and diflufenican at a wide range of doses i.e. 0, 250, 500, 1000 and 2000 g/ha of pendimethalin plus diflufenican at 0, 31, 62, 125, 250 and 500 g/ha.
All treatments were made in an appropriate volume of water by using appropriate quantities of a 33% w/v emulsifiable concentrate of pendimethalin (commercial product) and diflufenican formulated as an experimental aqueous suspension concentrate (Example 2 hereinafter) containing 50% w/v active ingredient to give the above dose rates in a spray volume of 290 l/ha. All treatments were applied using a laboratory sprayer fitted with a Sparying Systems Teejet SS 8003E operating at 2.94 kgf/cm^2. Treatments were applied to about 20 Alopecurus myosuroides seeds sown 1 cm deep in a loamy soil in 7.5 cm square pots. There were 4 replicate pots per treatment which were arranged in a randomised block design in a glasshouse after treatment. The pots were watered by a combination of overhead irrigation and sub-irrigation. A visual assessment of weed control was made 22 days after treatment as a percentage compared to the untreated pots. […]

The test system of data set [6] is Stellaria media. Kind of data set: Greenhouse post-emergence weed control, Stellaria media (Experiment 2). The conditions noted are these: 2 leaf stage, 14 days after treatment. The procedure:
as §2, §3

SMILES strings stand for the structures. Where only a bound is given, the exact number is not on record here.

For the compound `CCCN(CCC)c1c([N+](=O)[O-])cc(C(F)(F)F)cc1[N+](=O)[O-]` [Trifluralin, 2,6-dinitro-N,N-dipropyl-4-trifluoromethylaniline], the “Maximum % crop phytotoxicity” value in data set [1] is 0%. In addition, in data set [2], the “Maximum % crop phytotoxicity” value came out at 0%. In data set [3], the “% weed phytotoxicity 72 days after spraying” value worked out at 20% and the “% weed phytotoxicity 98 days after spraying” value turned out to be 5%.

In the case of `O=C(Nc1ccc(F)cc1F)c1cccnc1Oc1cccc(C(F)(F)F)c1` [diflufenican, N-(2,4-difluorophenyl)-2-(3-trifluoromethylphenoxy)nicotinamide], the “ED90 (90% herbicidally effective dose)” value in data set [4] (diflufenican alone) is on record as > 500 grams of diflufenican per hect; in data set [6] (diflufenican alone), 340 grams of diflufenican per hect. The entries for the “Maximum % crop phytotoxicity” value in data set [1] and in data set [2] were 5.8% and 0%, respectively. In addition, the “ED50 (50% herbicidally effective dose)” value in data set [5] (diflufenican alone) is 370 grams of diflufenican per hect. Besides, the “% weed phytotoxicity 72 days after spraying” value in data set [3] is 40%. Besides, the “% weed phytotoxicity 98 days after spraying” value in data set [3] is listed as 80%.

As for `CCC(CC)Nc1c([N+](=O)[O-])cc(C)c(C)c1[N+](=O)[O-]` [pendimethalin, N-(1-ethylpropyl)-3,4-dimethyl-2,6-dinitroaniline], the “ED90 of pendimethalin alone” value was “greater than 2000 g/ha” in data set [4] (pendimethalin alone) and 1653 g/ha in data set [6] (pendimethalin alone). Further, the “ED50 of pendimethalin alone” value in data set [5] (pendimethalin alone) was determined as 2071 g/ha.
